Test results: patent publication US9340534B2, “Compounds and methods for treating ocular diseases” (Allergan, Inc., priority 2014, dated 2016)
pEC50: −log10 of the molar value.

Experiments:
[1] = molecular target: T1, EP2 (Homo sapiens (Human), UniProt P43116); experiment: EP2 radioligand competition binding ([3H]PGE2); conditions: HEK-293 cells stably expressing receptor, [3H]PGE2 radioligand
Protocol: Competition binding experiments were performed in a medium containing Hank's balanced salt solution, Hepes 20 mM, pH 7.3, membranes (˜60 μg protein) or 2×10^5 cells from HEK 293 cells stably expressing human EP2 receptors, [^3H]PGE2 (10 nM) and various concentrations of test compounds in a total volume of 300 μl. Reaction mixtures were incubated at 23° C. for 60 min, and were filtered over Whatman GF/B filters under vacuum. Filters were washed three times with 5 ml ice-cold buffer containing 50 mM Tris/HCl (pH 7.3). Non-specific binding was estimated in the presence of excess unlabeled PGE2 (10 μM). Binding data fitted to the binding model for a single class of binding sites, using nonlinear regression analysis. IC50 values thus obtained were converted to Ki using the equation of Ki=(IC50/(1+[L]/KD) where [L] represents PGE2 concentration (10 nM) and KD the dissociation constant for [^3H]PGE2 at human EP2 receptors (40 nM). […]
The cell homogenate was centrifuged at 19000 r.p.m. for 20 min at 4° C. using a Beckman Ti-60 rotor. The resultant pellet was resuspended in TME buffer to give a final 1 mg/ml protein concentration, as determined by Biorad assay. […]
[^3H—] […] 17-phenyl PGF2a and non-specific binding determined with 10^−5M of unlabeled PGE2, or 17-phenyl PGF2a, according to receptor subtype studied.

[2] = molecular target: T2, EP4 (Homo sapiens (Human), UniProt P35408); experiment: EP4 cAMP functional assay; format: cell-based
T2 sequence (P35408 whole entry): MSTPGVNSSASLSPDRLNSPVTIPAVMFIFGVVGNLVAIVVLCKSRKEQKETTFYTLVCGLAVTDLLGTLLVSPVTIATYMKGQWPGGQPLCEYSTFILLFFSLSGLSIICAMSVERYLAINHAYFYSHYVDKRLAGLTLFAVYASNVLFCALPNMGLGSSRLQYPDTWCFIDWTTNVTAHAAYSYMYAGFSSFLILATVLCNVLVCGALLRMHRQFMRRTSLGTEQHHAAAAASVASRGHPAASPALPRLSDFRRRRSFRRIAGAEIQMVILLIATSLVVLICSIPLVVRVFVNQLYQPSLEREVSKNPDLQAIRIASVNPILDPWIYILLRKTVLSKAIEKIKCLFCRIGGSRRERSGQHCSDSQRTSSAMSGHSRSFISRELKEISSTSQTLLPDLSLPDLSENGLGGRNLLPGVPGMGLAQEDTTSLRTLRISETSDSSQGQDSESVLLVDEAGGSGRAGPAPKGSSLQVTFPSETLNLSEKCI

[3] = molecular target: T1, EP2; experiment: EP2 cAMP functional assay; format: cell-based
[4] = molecular target: T2, EP4; experiment: EP4 radioligand competition binding ([3H]PGE2); conditions: HEK-293 cells stably expressing receptor, [3H]PGE2 radioligand
Protocol: HEK-293 cells stably expressing the human or feline FP receptor, or EP1, EP2, or EP4 receptors were washed with TME buffer, scraped from the bottom of the flasks, and homogenized for 30 sec using a Brinkman PT 10/35 polytron. TME buffer was added to achieve a final 40 ml volume in the centrifuge tubes (the composition of TME is 100 mM TRIS base, 20 mM MgCl2, […]; 10N HCl is added to achieve a pH of 7.4).
The cell homogenate was centrifuged at 19000 r.p.m. for 20 min at 4° C. using a Beckman Ti-60 rotor. The resultant pellet was resuspended in TME buffer to give a final 1 mg/ml protein concentration, as determined by Biorad assay. Radioligand binding competition assays vs. [^3H-]17-phenyl PGF2a (5 nM) were performed in a 100 μl volume for 60 min. Binding reactions were started by adding plasma membrane fraction. The reaction was terminated by the addition of 4 ml ice-cold TRIS-HCl buffer and rapid filtration through glass fiber GF/B filters using a Brandel cell harvester. The filters were washed 3 times with ice-cold buffer and oven dried for one hour.
[^3H—] PGE2 (specific activity 180 Ci mmol) was used as the radioligand for EP receptors. [^3H] 17-phenyl PGF2a was employed for FP receptor binding studies. […] 17-phenyl PGF2a and non-specific binding determined with 10^−5M of unlabeled PGE2, or 17-phenyl PGF2a, according to receptor subtype studied.

T1 sequence (P43116 whole entry): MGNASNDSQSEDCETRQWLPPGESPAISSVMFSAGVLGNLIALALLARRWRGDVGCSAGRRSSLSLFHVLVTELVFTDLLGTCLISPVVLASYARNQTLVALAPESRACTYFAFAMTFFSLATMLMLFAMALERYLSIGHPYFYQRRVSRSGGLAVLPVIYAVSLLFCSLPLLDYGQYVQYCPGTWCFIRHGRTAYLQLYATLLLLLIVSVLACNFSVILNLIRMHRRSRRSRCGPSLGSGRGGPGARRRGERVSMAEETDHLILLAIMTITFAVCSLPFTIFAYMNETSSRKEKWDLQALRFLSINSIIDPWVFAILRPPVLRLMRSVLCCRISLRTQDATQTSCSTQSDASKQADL

pEC50 [1]: 7.02
pEC50 [2]: 9.00
pEC50 [3]: 7.42
pEC50 [4]: 7.28
Structure (SMILES): O=C(O)c1ccc(CCCN2[C@@H](/C=C/C(O)Cc3cccc(C(F)(F)F)c3)CCS2(=O)=O)s1 (stereo partly drawn) [Compound 14, 5-(3-((3R)-3-((E)-3-Hydroxy-4-(3-(trifluoromethyl)phenyl)but-1-en-1-yl)-1,1-dioxidoisothiazolidin-2-yl)propyl)thiophene-2-carboxylic acid]
